Results: paper PMC6071991, “Hydroxylated Polybrominated Biphenyl Ethers Exert Estrogenic Effects via Non-Genomic G Protein–Coupled Estrogen Receptor Mediated Pathways” (Environmental Health Perspectives, 2018)
Read-outs that look alike come from different tables or passages of the source.

Assays:
human GPER = system: human GPER; set-up: method as in Thomas and Dong 2006; details: ref Thomas and Dong 2006; cited from earlier work
GPER [1] = target: T1, GPER (Homo sapiens, UniProt Q99527); experiment: cell-based
GPER [2] = target: T1, GPER; experiment: SKBR3 cell-based fluorescence competitive binding assay (E2-F probe, flow cytometry)
[3] = system: GPER-mediated signaling in SKBR3 cells; experiment: Calcium mobilization assay in SKBR3 cells; assay type: cell-based, human; details: for significant dose-dependent increase in calcium mobilization compared to control: SKBR3 cells; for LOECs, activation of GPER signaling pathways: abstract summary over calcium mobilization and cAMP accumulation in SKBR3 cells
[4] = system: GPER-mediated signaling in SKBR3 cells; experiment: cAMP assay in SKBR3 cells; assay type: cell-based, human; details: for significant dose-dependent increase in cAMP production compared to control / LOEC, cAMP production: SKBR3 cells; for LOEC, cAMP production: 30 min treatment
Description: SKBR3 cells ( 2×10^4 cells) were seeded in 96-well microplates which were precoated with a capture antibody for the cAMP-antibody complex (Invitrogen). […].

ERα = system: ERα; set-up: method as in Li et al. 2013; details: ref Li et al. 2013; cited from earlier work
SKBR3 cells [5] = experiment: Wound-healing cell migration assay; assay type: cell-based, human; details: for LOEC, SKBR3 cell migration, wound-healing assay: 48 h; for LOECs, promotion of SKBR3 cell migration via GPER pathways: abstract summary over Boyden chamber and wound-healing assays
Description: For the wound-healing assays, SKBR3 cells were seeded in 12-well microplates at a density of 2.5×10^5 cells/well, incubated first in phenol red–free RPMI 1640 with 10% FBS for 12 h and then in phenol red–free RPMI 1640 without FBS for another 12 h. The cell layer was wounded with a sterile 200-μL pipet tip and washed 3 times with phenol red–free RPMI 1640. […] The closure of the scratch was photographed using an inverted microscope (ROCTEC) coupled to a camera (Canon). The change in the scratch area was evaluated using Image-Pro Plus 6.0 (Media Cybernetics). The relative cell migration was calculated by comparing the change in the wound area in the treated wells with those in the control wells.

SKBR3 cells [6] = experiment: Boyden chamber cell migration assay; assay type: cell-based, human; details: for LOEC, SKBR3 cell migration, Boyden chamber assay: 48 h
Description: SKBR3 cell migration was evaluated using Boyden chamber and wound-healing assays as described previously with slight modification ([Cao et al. 2017]). For the Boyden chamber assay, 24-well plates containing cell culture inserts with 8-μm pore size (Corning) were used. The cells ( 8×10^4 cells, 100μL ) were seeded in the upper chamber, and the lower chamber was supplied with 600μL phenol red–free RPMI 1640 with 10% FBS (Invitrogen). After 12 h, the cells were incubated with phenol red–free RPMI 1640 without FBS for another 12 h. […] After incubation for 48 h, the cells on the upper side of the insert membrane were removed with cotton swabs, and the cells on the lower surface of the membrane were fixed with methanol for 10 min and stained with 0.1% crystal violet (Sigma-Aldrich). Then, the cells were counted under an inverted microscope (ROCTEC) coupled to a camera (Canon), and six fields were randomly chosen per chamber. The relative cell migration was determined by comparing the average number of cells in the six fields of the treated chamber to those in the control chamber.

SH-SY5Y cells = system: SH-SY5Y cells; set-up: method as in Tian et al. 2016; details: activity inhibited by GPER antagonist G15; ref Tian et al. 2016; cited from earlier work
rats = details: exposure of pregnant rats, 1–10mg/kg, cited from earlier work
zebrafish GPER = system: zebrafish GPER; set-up: method as in Fitzgerald et al. 2015; details: ref Fitzgerald et al. 2015, cited from earlier work; for binding to zebrafish GPER at a single tested concentration: 1μM
[7] = ratio between IC50 of E2 and compounds, E2 = 100%
[8] = E2-treated SKBR3 cells, G15 pretreatment 2 h

T1 sequence (Q99527 whole entry): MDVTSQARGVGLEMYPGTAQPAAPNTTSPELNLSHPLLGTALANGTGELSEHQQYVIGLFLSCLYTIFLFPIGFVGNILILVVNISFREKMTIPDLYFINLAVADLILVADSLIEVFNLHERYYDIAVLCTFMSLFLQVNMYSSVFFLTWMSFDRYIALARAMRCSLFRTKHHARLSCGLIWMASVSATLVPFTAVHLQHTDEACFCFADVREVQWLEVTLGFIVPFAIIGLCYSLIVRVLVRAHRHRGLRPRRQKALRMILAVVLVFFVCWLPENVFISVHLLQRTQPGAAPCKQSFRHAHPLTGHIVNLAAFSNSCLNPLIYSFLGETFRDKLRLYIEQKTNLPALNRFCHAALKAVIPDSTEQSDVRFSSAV

Molecule: Clc1ccc(C(c2ccc(Cl)cc2)C(Cl)(Cl)Cl)cc1 [2,2-bis(p-chlorophenyl)-1,1,1-trichloroethane]
- RBA to human GPER compared to E2 (human GPER): 0.2–1.3%

Molecule: Clc1ccc(C(c2ccccc2Cl)C(Cl)Cl)cc1 (stereo not drawn) [2-(2-chlorophenyl)-2-(4-chlorophenyl)-1,1-dichloroethane]
- RBA to human GPER compared to E2 (human GPER): 0.2–1.3%

Molecule: Oc1ccccc1Oc1ccc(Br)cc1 [2ʹ-OH-BDE-003, 2'-hydroxy-4-monobromodiphenyl ether]
- IC50 (GPER [1]): 20 µM
- RBA (relative binding affinity) (GPER [2]; [7]): 1.3%

Molecule: Oc1c(Br)ccc(Oc2ccc(Br)cc2Br)c1Br [3-OH-BDE-047, 3-hydroxy-2,2',4,4'-tetrabromodiphenyl ether]
- significant dose-dependent increase in calcium mobilization compared to control [3]: exceptions
- significant dose-dependent increase in cAMP production compared to control [4]: exceptions
- IC50 (GPER [2]): 12 µM
- RBA (relative binding affinity) (GPER [2]): 2.2%

Molecule: Oc1c(Br)cc(Br)c(Oc2ccc(Br)cc2Br)c1Br [3-OH-BDE-100, 3-hydroxy-2,2',4,4',6-pentabromodiphenyl ether]
- significant dose-dependent increase in calcium mobilization compared to control [3]: exceptions
- significant dose-dependent increase in cAMP production compared to control [4]: exceptions
- type of activity on ERα (ERα): antagonists
- IC50 (GPER [1]): 3.6 µM
- RBA (relative binding affinity) (GPER [2]): 7.2%

Molecule: Oc1cccc(Oc2ccc(Br)cc2Br)c1 [3ʹ-OH-BDE-007, 3'-hydroxy-2,4-dibromodiphenyl ether]
- IC50 (GPER [1]): 2.6 µM
- RBA (relative binding affinity) (GPER [2]; [7]): 10.0%

Molecule: Oc1cc(Oc2ccc(Br)cc2Br)ccc1Br [3ʹ-OH-BDE-028, 3'-hydroxy-2,4,4'-tribromodiphenyl ether]
- IC50 (GPER [1]): 3 µM
- RBA (relative binding affinity) (GPER [2]; [7]): 8.7%

Molecule: Oc1c(Br)cc(Br)c(Oc2cc(Br)c(Br)cc2Br)c1Br [3ʹ-OH-BDE-154, 3'-hydroxy-2,2',4,4',5,6'-hexabromodiphenyl ether]
- LOECs, activation of GPER signaling pathways [3]: 10 to 100 nM
- LOEC, SKBR3 cell migration, wound-healing assay (SKBR3 cells [5]): 100 nM
- LOECs, promotion of SKBR3 cell migration via GPER pathways (SKBR3 cells [5]): 0.1 to 1 µM
- LOEC, SKBR3 cell migration, Boyden chamber assay (SKBR3 cells [6]): 100 nM
- type of activity on ERα (ERα): antagonists
- IC50 (GPER [1]): 1.3 µM

Molecule: Oc1c(Br)c(Br)c(Oc2cc(Br)c(Br)cc2Br)c(Br)c1Br [4-OH-BDE-187, 4-hydroxy-2,2',3,4',5,5',6-heptabromodiphenyl ether]
- IC50 (GPER [1]): 6.2 µM
- RBA (relative binding affinity) (GPER [2]; [7]): 4.2%

Molecule: Oc1ccc(-c2cc(Cl)ccc2Cl)c(Cl)c1 [4-hydroxy-2,2ʹ,5ʹ-trichloro-biphenyl]
- RBA to human GPER compared to E2 (human GPER): 0.2–1.3%

Molecule: Oc1cc(Br)c(Oc2ccc(Br)cc2Br)cc1Br [4ʹ-OH-BDE-049, 4'-hydroxy-2,2',4,5'-tetrabromodiphenyl ether]
- LOECs, activation of GPER signaling pathways [3]: 10 to 100 nM
- LOEC, SKBR3 cell migration, wound-healing assay (SKBR3 cells [5]): 1000 nM
- LOECs, promotion of SKBR3 cell migration via GPER pathways (SKBR3 cells [5]): 0.1 to 1 µM
- LOEC, SKBR3 cell migration, Boyden chamber assay (SKBR3 cells [6]; text: same LOECs as for the wound-healing assay): 1000 nM
- IC50 (GPER [1]): 2.8 µM
- RBA (relative binding affinity) (GPER [2]; [7]): 9.3%

Molecule: Oc1c(Br)c(Br)c(Oc2c(Br)cc(Br)c(Br)c2Br)c(Br)c1Br [4ʹ-OH-BDE-201, 4'-hydroxy-2,2',3,3',4,5',6,6'-octabromodiphenyl ether]
- IC50 (GPER [1]): 5.3 µM
- RBA (relative binding affinity) (GPER [2]; [7]): 4.9%

Molecule: Oc1cc(Oc2cc(Br)c(Br)cc2Br)c(Br)cc1Br [5ʹ-OH-BDE-099, 5'-hydroxy-2,2',4,4',5-pentabromodiphenyl ether]
- LOECs, activation of GPER signaling pathways [3]: 10 to 100 nM
- LOEC, SKBR3 cell migration, wound-healing assay (SKBR3 cells [5]): 100 nM
- LOECs, promotion of SKBR3 cell migration via GPER pathways (SKBR3 cells [5]): 0.1 to 1 µM
- LOEC, SKBR3 cell migration, Boyden chamber assay (SKBR3 cells [6]): 100 nM
- type of activity on ERα (ERα): antagonists
- IC50 (GPER [1]): 1.3 µM

Molecule: Oc1cc(Br)c(Br)c(Br)c1Oc1ccc(Br)cc1Br [6-OH-BDE-085, 6-hydroxy-2,2',3,4,4'-pentabromodiphenyl ether]
- type of activity on ERα (ERα): antagonists

Molecule: Oc1c(Br)c(Br)c(Br)c(Br)c1Oc1cc(Br)c(Br)cc1Br [6-OH-BDE-180, 6-hydroxy-2,2',3,4,4',5,5'-heptabromodiphenyl ether]
- IC50 (GPER [1]): 4.8 µM
- RBA (relative binding affinity) (GPER [2]; [7]): 5.4%

Molecule: Brc1ccc(Oc2ccc(Br)cc2Br)c(Br)c1 [BDE-047, 2,2',4,4'-tetrabromodiphenyl ether]
- effect on migration of SH-SY5Y cells (SH-SY5Y cells): stimulated the migration

Molecule: Brc1ccc(Oc2cc(Br)c(Br)cc2Br)c(Br)c1 [BDE-099, 2,2',4,4',5-pentabromodiphenyl ether]
- estrogen target genes in the uterus of female offspring (rats; ref Ceccatelli et al. 2006): changes in the regulation of estrogen target genes
- sex steroid levels in male and female offspring (rats; ref Lilienthal et al. 2006): decreases in sex steroid levels

Molecule: CC(C)(c1ccc(O)cc1)c1ccc(O)cc1 [BPA, bisphenol A]
- RBA to human GPER compared to E2 (human GPER): 2.8%
- RBA to zebrafish GPER (zebrafish GPER): 15.8%

Molecule: C[C@]12CC[C@@H]3c4ccc(O)cc4CC[C@H]3[C@@H]1CC[C@@H]2O [E2, 17β-estradiol, reference compound]
- LOEC, cAMP production [4]: 1 nM
- LOEC, SKBR3 cell migration, wound-healing assay (SKBR3 cells [5]): 1 nM
- LOEC, SKBR3 cell migration, Boyden chamber assay (SKBR3 cells [6]): 1 nM

Molecule: CC(=O)c1ccc2c(c1)C1C=CCC1C(c1cc3c(cc1Br)OCO3)N2 (stereo not drawn) [G1, reference compound]
- LOEC, cAMP production [4]: 1 nM
- LOEC, SKBR3 cell migration, wound-healing assay (SKBR3 cells [5]): 1 nM
- LOEC, SKBR3 cell migration, Boyden chamber assay (SKBR3 cells [6]): 1 nM

Molecule: Brc1cc2c(cc1[C@@H]1Nc3ccccc3[C@@H]3C=CC[C@@H]31)OCO2 [G15, reference compound]
- calcium mobilization after G15 pretreatment versus vehicle pretreatment [3, 8]: significantly lower
- cAMP production after G15 pretreatment versus vehicle pretreatment [4, 8]: significantly lower
- cell migration after G15 pretreatment versus OH-PBDE alone, wound-healing (SKBR3 cells [5]; 1μM OH-PBDEs, 10μM G15): significantly less cell migration
- cell migration after G15 pretreatment versus OH-PBDE alone, Boyden chamber (SKBR3 cells [6]; 1μM OH-PBDEs, 10μM G15): significantly less cell migration

Molecule: O=c1c(-c2ccc(O)cc2)coc2cc(O)cc(O)c12 [genistein]
- RBA to human GPER compared to E2 (human GPER): 1.3–13.4%

Molecule: O=C1C2(Cl)C3(Cl)C4(Cl)C(Cl)(Cl)C5(Cl)C3(Cl)C1(Cl)C5(Cl)C24Cl (stereo not drawn) [kepone]
- RBA to human GPER compared to E2 (human GPER): 1.3–13.4%

Molecule: CC(C)(c1cc(Br)c(O)c(Br)c1)c1cc(Br)c(O)c(Br)c1 [tetrabromobisphenol A]
- binding to zebrafish GPER at a single tested concentration (zebrafish GPER): effective binding

Molecule: CC(C)(c1cc(Cl)c(O)c(Cl)c1)c1cc(Cl)c(O)c(Cl)c1 [tetrachlorobisphenol A]
- binding to zebrafish GPER at a single tested concentration (zebrafish GPER): effective binding

Molecule: nonylphenol
- RBA to human GPER compared to E2 (human GPER): 1.3–13.4%
